Measured values published in article PMC7407491, “The Addition of a Synthetic LPS-Targeting Domain Improves Serum Stability While Maintaining Antimicrobial, Antibiofilm, and Cell Stimulating Properties of an Antimicrobial Peptide” (Biomolecules, 2020).
Bridge positions count the residues as written; N and C are the ends. Peptide text beside a SMILES is read from it.

Tests used:
[1] = system: S. typhimurium biofilm; experiment: Enumeration of viable cells after biofilm inhibition; format: cell-based, Salmonella typhimurium; conditions: 4 µg/mL, 48 h biofilm formation, CFU plated
Experimental: In order to investigate whether prevention or degradation of biofilm by peptide treatment impacted bacterial cell growth within the biofilm, an enumeration assay was carried out. The following protocol was developed using methods described in the work by Wilson et al.. Briefly, in separate 15 mL culture tubes, 20 µL of overnight culture of either E. coli, S. typhimurium, or MRSA were added to 1 mL of minimal salt media (40 mM […]; 22 mM KH2PO4; […] NH4CL; 740 mM NaCl; 2 mM MgSO4; 0.1 mM CaCl2; 22 mM supplemented with D-Glucose) and treated with PG-1 or SynPG-1. Due to the laborious procedure, the study was limited to measuring cell viability for only two concentrations, basing the choice on the highest significant reduction of biomass from crystal violet staining for each strain. […] These concentrations were chosen for the enumeration assay. In instances where no substantial reduction was seen, as in the case of E. coli, the highest tested biomass concentration, or higher, was chosen to confirm the lack of activity on viability. […] Tubes were placed in a static incubator at 37 °C for 48 h; the time required for untreated wells to form biofilm. After 48 h, treated media was removed and wells were rinsed with 1 mL of PBS to remove planktonic cells. […] CFU was recorded. […]

[2] = system: pre-formed S. typhimurium biofilm; experiment: Pre-formed biofilm destruction assay, crystal violet; format: cell-based, Salmonella typhimurium; conditions: 48 h pre-formed biofilm, 3 h peptide treatment 37 °C, crystal violet OD 590 nm; p < 0.05 vs control; three independent experiments, n = 6
Experimental: To test the destruction of preformed biofilms, in a 96-well plate, 15 µL of overnight culture, of either E. coli, S. typhimurium, or MRSA, was added to 150 µL of minimal salt media (40 mM […]; 22 mM KH2PO4; […] NH4CL; 740 mM NaCl; 2 mM MgSO4; 0.1 mM CaCl2; 22 mM supplemented with D-Glucose) in each well. Plates were placed in a static incubator at 37 °C for 48 h; the time required for untreated wells to form biofilm. After formation, minimal salt media was removed and wells were treated with 155 µL of minimal salt media containing PG-1 or SynPG-1. […] Plates were placed in a static incubator at 37 °C for 3 h. After 3 h, treated media was removed and wells were rinsed with 155 µL of PBS to remove planktonic cells. After sufficient drying of wells, 150 µL of 0.1% crystal violet stain was added to each well and incubated at room temperature for 30 min, after which dye was removed and wells were rinsed again with 155 µL of PBS. After sufficient drying of wells, 150 µL of 70% ethanol solution was added to each well and incubated at room temperature for 30 min. After 30 min, 100 µL of each well was added to a new 96-well plate and absorbance was measured at an OD of 590 nm.

[3] = Activity after incubation in serum (functional serum stability); format: in vitro ADME, pig
Experimental: To compare serum stability, a similar procedure was utilized, as described in Dong et al., with some modification. Briefly, a solution of 25% pig serum was made by diluting fresh pig serum with phosphate buffer saline (PBS). […] Suspension containing no peptide was considered the negative control. Experimental and control tubes were incubated for up to 7 or 24 h in 37 °C to allow for serum constituent interaction with the peptide. […] Experimental and control tubes were incubated for 2 h at 37 °C without shaking to allow for bactericidal action to occur. […] This experiment was carried out three independent times. […] On the other hand, SynPG-1 maintained strong antimicrobial activity even after 24 h of incubation in serum, indicated through a consistently low mean % growth, as compared to the controls seen in Figure 2b. […] All experiments were conducted three independent times. […] Data represent the mean ± SEM of three experiments. The asterisk represents p < 0.05 when compared with SynPG-1 by two-way ANOVA with a post hoc Tukey test.

[4] = system: MRSA; format: cell-based, Methicillin-resistant Staphylococcus aureus; conditions: 2 h, pH 7
Experimental: Veterinary clinical isolates, including Salmonella typhimurium, multi-drug resistant Escherichia coli, methicillin-resistant Staphylococcus aureus (MRSA), and methicillin-resistant Staphylococcus pseudointermedius (MRSP), were kindly provided by Dr. H. Cai (Department of Pathobiology, University of Guelph, ON, Canada). An antibiogram for these strains is available in the supplementary text (Table S1). Gram-negative strains were cultured in Luria−Bertani (LB) broth. Gram-positive strains were cultured in Tryptic soy broth (TSB). Both cultures were grown under aerobic conditions at 37 °C.
The minimum bactericidal concentration (MBC) of SynPG-1 against the tested pathogens was identified through a broth macrodilution antimicrobial assay as previously described, with some modification. […] The buffer volume was adjusted to accommodate the addition of SynPG-1 and PG-1 so that the final solution volume was 0.5 mL for each tested concentration. Final peptide concentrations ranged from 0.1 µg/mL to 8 µg/mL. PG-1 at the known MBC (2 µg/mL E. coli; 4 µg/mL S. typhimurium; 0.5 µg/mL MRSP; 0.5 µg/mL MRSA) was considered the in-house positive control, while the suspension containing no peptide was considered the negative control. Experimental and control tubes were incubated for 2 h at 37 °C without shaking to allow for bactericidal action to occur. […] Colony numbers from each plate were recorded. […]

Structure (SMILES): CC[C@H](C)[C@H](NC(=O)[C@H](CCCCN)NC(=O)[C@H](CCCNC(=N)N)NC(=O)[C@H](CC(C)C)NC(=O)[C@H](CC(C)C)NC(=O)[C@H](CCCNC(=N)N)NC(=O)[C@H](CCCNC(=N)N)NC(=O)[C@H](CC(C)C)NC(=O)CN)C(=O)N[C@@H](CCCNC(=N)N)C(=O)NCC(=O)N[C@@H](CCCNC(=N)N)C(=O)N[C@@H](Cc1c[nH]c2ccccc12)C(=O)N[C@@H](CCCCN)C(=O)NCC(=O)NCC(=O)NCC(=O)N[C@@H](CCCNC(=N)N)C(=O)NCC(=O)NCC(=O)N[C@@H](CCCNC(=N)N)C(=O)N[C@@H](CC(C)C)C(=O)N[C@H]1CSSC[C@@H](C(=O)N[C@H](C(=O)NCC(=O)N[C@@H](CCCNC(=N)N)C(=O)O)C(C)C)NC(=O)[C@H](C(C)C)NC(=O)[C@@H]2CSSC[C@H](NC(=O)[C@H](Cc3ccc(O)cc3)NC1=O)C(=O)N[C@@H](CCCNC(=N)N)C(=O)N[C@@H](CCCNC(=N)N)C(=O)N[C@@H](CCCNC(=N)N)C(=O)N[C@@H](Cc1ccccc1)C(=O)N2 [SynPG-1, Syn-Protegrin-1] (H-GLRRLLRKIRGRWKGGGRGGRLCYCRRRFCVCVGR-OH; disulfide 23-32, 25-30; N-terminus and C-terminus assumed)
- Reduction of mean % growth of control compared with PG-1 [1]: significantly lower reduction of mean % growth of control
- Concentration with significant disruption of pre-formed biofilm [2]: 8 µg/mL
- Time of incubation in 25% serum for which antimicrobial activity is maintained [3]: ≤ 24 h
- Increase in stability in 25% serum versus PG-1 ([3]; 24 h versus 2 h of retained activity in 25% serum): 12 fold
- MBC [4]: 0.5 (0.09) μg/mL
